From US20240368191A1, “HETEROCYCLIC COMPOUNDS AND USES THEREOF” (Kumquat Biosciences Inc., priority 2021, published 2024)

Key:
[1] = Metabolic (microsomal) stability assay; conditions: pooled liver microsomes, pH 7.4
[2] = molecular target: T1, KRAS G12D 1-169 (His-tagged, GDP-loaded) (Homo sapiens, UniProt P01116, G12D); test: Covalent modification of KRAS protein by intact-protein LC-MS; format: binding; conditions: comparable or same conditions as K-Ras G12S
T1 construct: His -tagged GDP-loaded G12D 1-169; made in house; host or cells: E. coli, e.g. BL21 (DE3)
Protocol: Test compounds are prepared as 10 mM stock solutions in DMSO (Fisher cat #BP231-100). KRAS protein (His -tagged GDP-loaded wildtype 1-169, His -tagged GDP-loaded G12S 1-169 or His -tagged GDP-loaded G12D 1-169) is diluted to ˜2 μM in appropriate buffer (e.g., a Hepes buffer at physiological conditions). For testing KRAS modification, compounds are diluted to 50× final test concentration in DMSO in 96-well storage plates. 2 μl of the diluted 50× compounds are added to appropriate wells in the PCR plate (Fisher cat #AB-0800). ˜49 μl of the stock protein solution is added to each well of the 96-well PCR plate. Reactions are mixed carefully. The plate is sealed well with aluminum plate seal, and stored in drawer at room temperature for 24 hrs. 5 μl of 2% formic acid (Fisher cat #A117-50) in MilliQ H2O is then added to each well followed by mixing with a pipette. The plate is then resealed with aluminum seal and stored until mass spectrometry analysis.
The extent of covalent modification of KRAS proteins was determined by liquid chromatography electrospray mass spectrometry analysis of the intact proteins on a Thermo Q-Exactive Plus mass spectrometer. 20 μl of sample was injected onto a bioZen 3.6 μm Intact C4 column (Phenomenex cat #00B-4767-AN) placed in a column oven set to 40° C. and separated using a suitable LC gradient from ˜20% to ˜60% solvent B. Solvent A was 0.1% formic acid and solvent B was 0.1% formic acid in acetonitrile. HESI source settings were set to 40, 5 and 1 for the sheath, auxiliary and sweep gas flow, respectively. The spray voltage was 4 kV, and the capillary temperature was 320° C. S-lens RF level was 50 and auxiliary gas heater temperature was set to 200° C. The mass spectrometry was acquired using a scan range from 650 to 1750 m/z using positive polarity at a mass resolution of 70,000, AGC target of 1e6 ions and maximum injection time of 250 ms. The recorded protein mass spectrum was deconvoluted from the raw data file using Protein Deconvolution v4.0 (Thermo). The protein mass and adduct masses were exported with their peak intensities. The peak intensities for the unmodified and modified protein were used to calculate the percent covalent modification of the KRAS protein based on the following equation: % KRAS protein modification=((KRAS−compound)/(KRAS)+(KRAS−Compound))*100.

T1 sequence (P01116 1-169 isoform P01116-2 G12D): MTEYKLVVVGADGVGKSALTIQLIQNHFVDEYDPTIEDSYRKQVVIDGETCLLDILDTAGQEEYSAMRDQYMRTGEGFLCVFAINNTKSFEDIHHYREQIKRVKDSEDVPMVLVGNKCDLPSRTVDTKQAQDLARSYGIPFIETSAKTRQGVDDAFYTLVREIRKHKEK

Structure (SMILES)	covalent labeling of K-Ras G12D [2]	half-life at 0.5 μM [1] [min]
Nc1nc2c(-c3c(Cl)cc4c(N5CCN(C(=O)n6cncn6)CC5)nc(OC[C@@]56CCCN5C[C@H](F)C6)nc4c3F)ccc(F)c2s1 [Compound A146, (4-(7-(2-amino-7-fluorobenzo-[d]thiazol-4-yl)-6-chloro-8-fluoro-2-(((2R,7aS)-2-fluoro-tetrahydro-1H-pyrrolizin-7a(5H)-yl)methoxy)quinazolin-4-yl)piperazin-1-yl)(1H-1,2,4-triazol-1-yl)methanone]	–	> 10
N#Cc1c(N)sc2c(F)ccc(-c3c(Cl)cc4c(N5CC6(CN(C(=O)n7cncn7)CCO6)C5)nc(OC[C@@]56CCCN5C[C@H](F)C6)nc4c3F)c12 [Compound A140, 4-(4-(8-(1H-1,2,4-triazole-1-carbonyl)-5-oxa-2,8-diaza-spiro[3.5]nonan-2-yl)-6-chloro-8-fluoro-2-(((2R,7aS)-2-fluoro-tetrahydro-1H-pyrrolizin-7a(5H)-yl)methoxy)quinazolin-7-yl)-2-amino-7-fluorobenzo-[b]thiophene-3-carbonitrile]	–	> 10
N#Cc1c(N)sc2c(F)ccc(-c3c(Cl)cc4c(N5CCCC6(CN(C(=O)n7cncn7)C6)C5)nc(OC[C@@]56CCCN5C[C@H](F)C6)nc4c3F)c12 [Compound A129, 4-(4-(2-(1H-1,2,4-triazole-1-carbonyl)-2,6-diazaspiro[3.5]-nonan-6-yl)-6-chloro-8-fluoro-2-(((2R,7aS)-2-fluorotetrahydro-1H-pyrrolizin-7a(5H)-yl)meth-oxy)quinazolin-7-yl)-2-amino-7-fluorobenzo[b]thiophene-3-carbonitrile]	–	> 10
N#Cc1c(N)sc2c(F)ccc(-c3c(Cl)cc4c(N5CCC6CN(C(=O)Nc7ncccn7)CCC65)nc(OC[C@@]56CCCN5C[C@H](F)C6)nc4c3F)c12 (single isomer, unassigned) [Compound A271]	–	> 10
N#CC[C@H]1CN(c2nc(OC[C@@]34CCCN3C[C@H](F)C4)nc3c(F)c(-c4ccc(F)c5sc(N)nc45)c(Cl)cc23)CCN1C(=O)n1cncn1 [Compound A145, 2-((2S)-4-(7-(2-amino-7-fluorobenzo[d]thiazol-4-yl)-6-chloro-8-fluoro-2-(((2R,7aS)-2-fluorotetrahydro-1H-pyrrolizin-7a(5H)-yl)methoxy)quinazolin-4-yl)-1-(1H-1,2,4-triazole-1-carbonyl)piperazin-2-yl)aceto-nitrile]	–	> 10
Nc1nc2c(-c3c(Cl)cc4c(N5CCC6(CN(C(=O)n7cncn7)C6)C5)nc(OC[C@@]56CCCN5C[C@H](F)C6)nc4c3F)ccc(F)c2s1 [Compound A201, (6-(7-(2-amino-7-fluorobenzo-[d]thiazol-4-yl)-6-chloro-8-fluoro-2-(((2R,7aS)-2-fluoro-tetrahydro-1H-pyrrolizin-7a(5H)-yl)methoxy)quinazolin-4-yl)-2,6-diazaspiro[3.4]octan-2-yl)(1H-1,2,4-triazol-1-yl)-methanone]	–	> 10
N#Cc1c(N)sc2c(F)ccc(-c3c(Cl)cc4c(N5CCN(CC6CC6)C6(CN(C(=O)n7cncn7)C6)C5)nc(OC[C@@]56CCCN5C[C@H](F)C6)nc4c3F)c12 [Compound A139, 2-amino-4-(6-chloro-4-(5-(cyclopropylmethyl)-2-(1H-1,2,4-triazole-1-carbonyl)-2,5,8-triazaspiro[3.5]nonan-8-yl)-8-fluoro-2-(((2R,7aS)-2-fluoro-tetrahydro-1H-pyrrolizin-7a(5H)-yl)methoxy)quinazolin-7-yl)-7-fluorobenzo[b]thiophene-3-carbonitrile]	–	> 10
N#Cc1c(N)sc2c(F)ccc(-c3ncc4c(N5CCCC6(CN(C(=O)n7cncn7)C6)C5)nc(OC[C@@]56CCCN5C[C@H](F)C6)nc4c3F)c12 [Compound A134, 4-(4-(2-(1H-1,2,4-triazole-1-carbonyl)-2,6-diazaspiro[3.5]-nonan-6-yl)-8-fluoro-2-(((2R,7aS)-2-fluorotetrahydro-1H-pyrrolizin-7a(5H)-yl)meth-oxy)pyrido[4,3-d]pyrimidin-7-yl)-2-amino-7-fluorobenzo[b]-thiophene-3-carbonitrile]	essentially no detectable labeling	–

The next lines start with results.

covalent labeling of K-Ras G12D [2]	Structure (SMILES)	half-life at 0.5 μM [1] [min]
essentially no detectable labeling	N#Cc1c(N)sc2c(F)ccc(-c3c(Cl)cc4c(N5CCOC6(CN(C(=O)n7ccnn7)C6)C5)nc(OC[C@@]56CCCN5C[C@H](F)C6)nc4c3F)c12 [Compound A195, 4-(4-(2-(1H-1,2,3-triazole-1-carbonyl)-5-oxa-2,8-diazaspiro-[3.5]nonan-8-yl)-6-chloro-8-fluoro-2-(((2R,7aS)-2-fluoro-tetrahydro-1H-pyrrolizin-7a(5H)-yl)methoxy)quinazolin-7-yl)-2-amino-7-fluorobenzo-[b]thiophene-3-carbonitrile]	–
essentially no detectable labeling	N#Cc1c(N)sc2c(F)ccc(-c3ncc4c(N5CCOC6(CN(C(=O)n7cncn7)C6)C5)nc(OC[C@@]56CCCN5C[C@H](F)C6)nc4c3F)c12 [Compound A161, 4-(4-(2-(1H-1,2,4-triazole-1-carbonyl)-5-oxa-2,8-diaza-spiro[3.5]nonan-8-yl)-8-fluoro-2-(((2R,7aS)-2-fluorotetrahydro-1H-pyrrolizin-7a(5H)-yl)meth-oxy)pyrido[4,3-d]pyrimidin-7-yl)-2-amino-7-fluorobenzo[b]-thiophene-3-carbonitrile]	–
essentially no detectable labeling	Cc1ncn(C(=O)N2CCCC(Oc3nc(OC[C@@]45CCCN4C[C@H](F)C5)nc4c(F)c(-c5ccc(F)c6sc(N)c(C#N)c56)c(Cl)cc34)C2)n1 (stereo partly drawn) [Compound A302, 2-amino-4-(6-chloro-8-fluoro-2-(((2R,7aS)-2-fluorotetrahydro-1H-pyrrolizin-7a(5H)-yl)meth-oxy)-4-((1-(3-methyl-1H-1,2,4-triazole-1-carbonyl)piperidin-3-yl)oxy)quinazolin-7-yl)-7-fluorobenzo[b]thiophene-3-carbonitrile]	–
essentially no detectable labeling	Cc1nc(C)n(C(=O)N2CC3(C2)CN(c2nc(OC[C@@]45CCCN4C[C@H](F)C5)nc4c(F)c(-c5ccc(F)c6sc(N)c(C#N)c56)c(Cl)cc24)CCO3)n1 [Compound A283, 2-amino-4-(6-chloro-4-(2-(3,5-dimethyl-1H-1,2,4-triazole-1-carbonyl)-5-oxa-2,8-diazaspiro-[3.5]nonan-8-yl)-8-fluoro-2-(((2R,7aS)-2-fluorotetrahydro-1H-pyrrolizin-7a(5H)-yl)meth-oxy)quinazolin-7-yl)-7-fluoro-benzo[b]thiophene-3-carbonitrile]	–
essentially no detectable labeling	C[C@H](Oc1nc(N2CCOC3(CN(C(=O)n4cncn4)C3)C2)c2cc(Cl)c(-c3ccc(F)c4sc(N)c(C#N)c34)c(F)c2n1)[C@@H]1CCCN1C [Compound A275, 4-(4-(2-(1H-1,2,4-triazole-1-carbonyl)-5-oxa-2,8-diazaspiro-[3.5]nonan-8-yl)-6-chloro-8-fluoro-2-((S)-1-((S)-1-methyl-pyrrolidin-2-yl)ethoxy)quin-azolin-7-yl)-2-amino-7-fluoro-benzo[b]thiophene-3-carbonitrile]	–
essentially no detectable labeling	C#Cc1c(F)ccc2cc(O)cc(-c3ncc4c(N5CCOCC6(CN(C(=O)n7cnc(C)n7)C6)C5)nc(OC[C@@]56CCCN5C[C@H](F)C6)nc4c3F)c12 [Compound A298, (9-(7-(8-ethynyl-7-fluoro-3-hydroxynaphthalen-1-yl)-8-fluoro-2-(((2R,7aS)-2-fluoro-tetrahydro-1H-pyrrolizin-7a(5H)-yl)methoxy)pyrido[4,3-d]pyrimidin-4-yl)-6-oxa-2,9-diazaspiro[3.6]decan-2-yl)(3-methyl-1H-1,2,4-triazol-1-yl)-methanone]	–
essentially no detectable labeling	Nc1nc2c(-c3c(Cl)cc4c(N5CC6(CCCN(C(=O)n7cncn7)C6)C5)nc(OC[C@@]56CCCN5C[C@H](F)C6)nc4c3F)ccc(F)c2s1 [Compound A230, (2-(7-(2-amino-7-fluorobenzo-[d]thiazol-4-yl)-6-chloro-8-fluoro-2-(((2R,7aS)-2-fluoro-tetrahydro-1H-pyrrolizin-7a(5H)-yl)methoxy)quinazolin-4-yl)-2,6-diazaspiro[3.5]nonan-6-yl)(1H-1,2,4-triazol-1-yl)-methanone]	–
